Key:
Format in all cases: in vivo
[1] = test system: canarygrass (Phalaris minor); assay: Test B postemergence plant response
Procedure, shortened: (§1)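 Visual ratings from 0 (no effect) to 100 (complete control), made against controls 13–15 days after treatment, kept in a greenhouse. Compounds were applied postemergence to potted plants at the 1- to 4-leaf stage (2–18 cm).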

[2] = test system: winter barley (Hordeum vulgare); assay: Test B postemergence plant response
Procedure, shortened: as §1

[3] = test system: chickweed (Stellaria media); assay: Test B postemergence plant response
Procedure, shortened: as §1

[4] = test system: windgrass (Apera spica-venti); assay: Test B postemergence plant response
Procedure, shortened: as §1

[5] = test system: goosegrass (Eleusine indica); assay: Test B pre-/postemergence plant response
Procedure, shortened: (§2)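 Each species received compound formulated in non-phytotoxic solvent with surfactant, either at planting into a loam and sand blend or as a foliar spray once plants reached 2 to 18 cm in peat-based medium. Plants stayed in the greenhouse 13 to 15 days before visual evaluation against controls, scored 0 (no effect) to 100 (complete control).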

[6] = test system: pigweed (Amaranthus retroflexus); assay: Test B pre-/postemergence plant response
Procedure, shortened: as §2

[7] = test system: green foxtail (Setaria viridis); assay: Test B pre-/postemergence plant response
Procedure, shortened: as §2

corn (Zea mays) = assay: Test B pre-/postemergence plant response
Procedure, shortened: as §2

[8] = test system: lambsquarters (Chenopodium album); assay: Test B pre-/postemergence plant response
Procedure, shortened: as §2

[9] = test system: giant foxtail (Setaria faberii); assay: Test B pre-/postemergence plant response
Procedure, shortened: as §2

[10] = test system: yellow nutsedge (Cyperus esculentus); assay: Test B pre-/postemergence plant response
Procedure, shortened: as §2

[11] = test system: johnsongrass (Sorghum halepense); assay: Test B pre-/postemergence plant response
Procedure, shortened: as §2

soybean (Glycine max) = assay: Test B pre-/postemergence plant response
Procedure, shortened: as §2

[12] = test system: velvetleaf (Abutilon theophrasti); assay: Test B pre-/postemergence plant response
Procedure, shortened: as §2

[13] = 31 g ai/ha, postemergence, scale 0 to 100, 0 is no effect, 100 is complete control
[14] = 62 g ai/ha, postemergence, 0 is no effect, 100 is complete control, 13 to 15 days
[15] = Postemergence, 125 g ai/ha, visual rating after 13 to 15 days, scale 0 (no effect) to 100 (complete control)
[16] = Postemergence, 250 g ai/ha, scale 0 to 100 (0 no effect, 100 complete control)

## Cc1ccc(-c2ncc(C(=O)C3=C(O)CCCC3=O)c(=O)n2-c2ccccc2)cc1 [Compound 80]
[1]; [13]
  Plant response rating, Canarygrass: 45
[1]; [14]
  Canarygrass plant response rating (0 to 100 scale): 50
[1]; [15]
  Plant response rating, Canarygrass: 50
[1]; [16]
  Plant response rating, Canarygrass: 70
[2]; [13]
  Plant response rating, Barley: 15
[2]; [14]
  Barley plant response rating (0 to 100 scale): 30
[2]; [15]
  Plant response rating, Barley: 30
[2]; [16]
  Plant response rating, Barley: 75
[3]; [13]
  Plant response rating, Chickweed: 90
[3]; [14]
  Chickweed plant response rating (0 to 100 scale): 98
[3]; [15]
  Plant response rating, Chickweed: 100
[3]; [16]
  Plant response rating, Chickweed: 100
[4]; [13]
  Plant response rating, Windgrass: 50
[4]; [14]
  Windgrass plant response rating (0 to 100 scale): 60
[4]; [15]
  Plant response rating, Windgrass: 70
[4]; [16]
  Plant response rating, Windgrass: 80
[5]; [13]
  Plant response rating, Goosegrass: 70
[5]; [14]
  Goosegrass plant response rating (0 to 100 scale): 75
[5]; [15]
  Plant response rating, Goosegrass: 80
[5]; [16]
  Plant response rating, Goosegrass: 85
[6]; [13]
  Plant response rating, Pigweed: 100
[6]; [14]
  Pigweed plant response rating (0 to 100 scale): 100
[6]; [15]
  Plant response rating, Pigweed: 100
[6]; [16]
  Plant response rating, Pigweed: 100
[7]; [13]
  Plant response rating, Foxtail, Green: 90
[7]; [14]
  Foxtail, Green plant response rating (0 to 100 scale): 95
[7]; [15]
  Plant response rating, Foxtail, Green: 95
[7]; [16]
  Plant response rating, Foxtail, Green: 98
Corn (Zea mays); [13]
  Plant response rating, Corn: 5
Corn (Zea mays); [14]
  Corn plant response rating (0 to 100 scale): 35
Corn (Zea mays); [15]
  Plant response rating, Corn: 65
Corn (Zea mays); [16]
  Plant response rating, Corn: 65
[8]; [13]
  Plant response rating, Lambsquarters: 95
[8]; [14]
  Lambsquarters plant response rating (0 to 100 scale): 95
[8]; [15]
  Plant response rating, Lambsquarters: 98
[8]; [16]
  Plant response rating, Lambsquarters: 100
[9]; [13]
  Plant response rating, Foxtail, Giant: 75
[9]; [14]
  Foxtail, Giant plant response rating (0 to 100 scale): 90
[9]; [15]
  Plant response rating, Foxtail, Giant: 95
[9]; [16]
  Plant response rating, Foxtail, Giant: 95
[10]; [13]
  Plant response rating, Nutsedge, Yellow: 10
[10]; [14]
  Nutsedge, Yellow plant response rating (0 to 100 scale): 15
[10]; [15]
  Plant response rating, Nutsedge, Yellow: 55
[10]; [16]
  Plant response rating, Nutsedge, Yellow: 75
[11]; [13]
  Plant response rating, Johnsongrass: 0
[11]; [14]
  Johnsongrass plant response rating (0 to 100 scale): 0
[11]; [15]
  Plant response rating, Johnsongrass: 10
[11]; [16]
  Plant response rating, Johnsongrass: 45
Soybean (Glycine max); [13]
  Plant response rating, Soybean: 75
Soybean (Glycine max); [14]
  Soybean plant response rating (0 to 100 scale): 80
Soybean (Glycine max); [15]
  Plant response rating, Soybean: 90
Soybean (Glycine max); [16]
  Plant response rating, Soybean: 95
[12]; [13]
  Plant response rating, Velvetleaf: 85
[12]; [14]
  Velvetleaf plant response rating (0 to 100 scale): 100
[12]; [15]
  Plant response rating, Velvetleaf: 100
[12]; [16]
  Plant response rating, Velvetleaf: 100
